According to patent EP4467141A1, “PYRAZOLO-QUINOLINES AS SELECTIVE INHIBITORS OF GENOTOXIC STRESS-INDUCED IKK/NF- KB PATHWAYS FOR CANCER THERAPY” (Max-Delbrück-Centrum für Molekulare Medizin in der …, priority 2023, dated 2024):

Experiments:
Test in all cases: Kinase panel study
Assay type in all cases: biochemical
Conditions in all cases: read-out: Percentage of inhibition; for inhibition at 1 µM: 1000nM; for inhibition at 10 µM: 10000nM
EGFR (ErbB1) L861Q = biological target: T1, EGFR (ErbB1) L861Q (Homo sapiens, UniProt P00533, L861Q)
T1 construct: purchased Thermo Fisher Scientific
T1 sequence (P00533 25-1210 L861Q): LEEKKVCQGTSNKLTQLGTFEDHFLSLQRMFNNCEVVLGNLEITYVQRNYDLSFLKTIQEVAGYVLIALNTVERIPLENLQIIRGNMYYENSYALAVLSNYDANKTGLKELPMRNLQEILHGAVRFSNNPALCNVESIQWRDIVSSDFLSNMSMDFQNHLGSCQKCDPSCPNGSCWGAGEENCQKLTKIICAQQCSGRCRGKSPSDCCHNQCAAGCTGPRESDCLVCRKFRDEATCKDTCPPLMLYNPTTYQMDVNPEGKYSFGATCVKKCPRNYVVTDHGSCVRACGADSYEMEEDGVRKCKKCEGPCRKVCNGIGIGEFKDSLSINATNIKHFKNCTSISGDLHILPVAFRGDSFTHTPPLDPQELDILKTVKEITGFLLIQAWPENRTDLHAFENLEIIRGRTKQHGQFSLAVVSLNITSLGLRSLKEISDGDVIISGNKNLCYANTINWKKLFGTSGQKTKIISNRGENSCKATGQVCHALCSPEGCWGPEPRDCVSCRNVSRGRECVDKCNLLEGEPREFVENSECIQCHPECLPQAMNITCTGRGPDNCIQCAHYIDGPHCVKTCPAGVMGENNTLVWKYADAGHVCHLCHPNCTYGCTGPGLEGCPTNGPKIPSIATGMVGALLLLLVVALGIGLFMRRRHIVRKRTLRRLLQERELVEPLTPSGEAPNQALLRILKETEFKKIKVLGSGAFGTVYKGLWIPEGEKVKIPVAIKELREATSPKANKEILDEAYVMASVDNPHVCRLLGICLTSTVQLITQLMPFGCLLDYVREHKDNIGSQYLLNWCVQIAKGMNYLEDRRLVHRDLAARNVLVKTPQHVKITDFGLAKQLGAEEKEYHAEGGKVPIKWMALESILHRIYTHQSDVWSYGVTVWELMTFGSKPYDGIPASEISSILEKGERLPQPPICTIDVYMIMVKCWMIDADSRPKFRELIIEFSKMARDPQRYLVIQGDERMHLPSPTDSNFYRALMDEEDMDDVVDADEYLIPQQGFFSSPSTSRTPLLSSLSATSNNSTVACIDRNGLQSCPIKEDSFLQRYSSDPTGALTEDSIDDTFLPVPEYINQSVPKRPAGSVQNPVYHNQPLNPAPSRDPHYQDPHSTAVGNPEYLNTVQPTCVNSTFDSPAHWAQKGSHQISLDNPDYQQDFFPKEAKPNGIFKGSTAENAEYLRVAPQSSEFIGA
Outline: (§1)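 ZLyte/Adapta biochemical kinase assays, standard operating procedures; % inhibition at 1 µM or 10 µM test compound; IC50 determined in panel.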

CAMK2B (CaMKII beta) = biological target: T2, CAMK2B (CaMKII beta) (Homo sapiens, UniProt Q13554)
T2 construct: purchased Thermo Fisher Scientific
Outline: as §1

FRK (PTK5) = biological target: T3, FRK (PTK5) (Homo sapiens, UniProt P42685)
T3 construct: purchased Thermo Fisher Scientific
T3 sequence (P42685 whole entry): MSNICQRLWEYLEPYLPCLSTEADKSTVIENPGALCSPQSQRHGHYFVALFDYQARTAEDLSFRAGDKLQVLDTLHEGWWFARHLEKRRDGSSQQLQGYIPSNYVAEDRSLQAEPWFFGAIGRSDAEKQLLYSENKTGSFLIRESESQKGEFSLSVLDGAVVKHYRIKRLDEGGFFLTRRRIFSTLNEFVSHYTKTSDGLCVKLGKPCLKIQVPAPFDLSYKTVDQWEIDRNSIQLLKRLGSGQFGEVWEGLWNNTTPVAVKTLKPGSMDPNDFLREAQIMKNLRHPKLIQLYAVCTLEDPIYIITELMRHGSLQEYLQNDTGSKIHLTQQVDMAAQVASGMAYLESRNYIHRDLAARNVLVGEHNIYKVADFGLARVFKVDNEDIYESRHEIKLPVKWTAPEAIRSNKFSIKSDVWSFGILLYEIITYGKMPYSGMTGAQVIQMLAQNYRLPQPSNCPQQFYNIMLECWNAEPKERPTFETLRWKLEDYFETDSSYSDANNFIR
Outline: as §1

NEK2 = biological target: T4, NEK2 (Homo sapiens, UniProt P51955)
T4 construct: purchased Thermo Fisher Scientific
T4 sequence (P51955 1-445): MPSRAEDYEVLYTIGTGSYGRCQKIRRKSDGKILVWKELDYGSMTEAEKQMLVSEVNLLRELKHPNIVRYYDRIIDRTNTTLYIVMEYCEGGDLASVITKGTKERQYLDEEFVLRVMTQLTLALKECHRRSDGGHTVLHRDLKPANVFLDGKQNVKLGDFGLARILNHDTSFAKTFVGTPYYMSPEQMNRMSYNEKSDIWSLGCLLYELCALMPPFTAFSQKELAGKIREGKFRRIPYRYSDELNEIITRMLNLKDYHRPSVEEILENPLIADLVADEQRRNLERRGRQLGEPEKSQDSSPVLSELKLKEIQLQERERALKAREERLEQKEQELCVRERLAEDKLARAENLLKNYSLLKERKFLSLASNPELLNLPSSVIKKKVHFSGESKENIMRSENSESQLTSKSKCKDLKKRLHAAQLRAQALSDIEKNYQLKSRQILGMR
Outline: as §1

EGFR (ErbB1) G719S = biological target: T5, EGFR (ErbB1) G719S (Homo sapiens, UniProt P00533, G719S)
T5 construct: purchased Thermo Fisher Scientific
T5 sequence (P00533 25-1210 G719S): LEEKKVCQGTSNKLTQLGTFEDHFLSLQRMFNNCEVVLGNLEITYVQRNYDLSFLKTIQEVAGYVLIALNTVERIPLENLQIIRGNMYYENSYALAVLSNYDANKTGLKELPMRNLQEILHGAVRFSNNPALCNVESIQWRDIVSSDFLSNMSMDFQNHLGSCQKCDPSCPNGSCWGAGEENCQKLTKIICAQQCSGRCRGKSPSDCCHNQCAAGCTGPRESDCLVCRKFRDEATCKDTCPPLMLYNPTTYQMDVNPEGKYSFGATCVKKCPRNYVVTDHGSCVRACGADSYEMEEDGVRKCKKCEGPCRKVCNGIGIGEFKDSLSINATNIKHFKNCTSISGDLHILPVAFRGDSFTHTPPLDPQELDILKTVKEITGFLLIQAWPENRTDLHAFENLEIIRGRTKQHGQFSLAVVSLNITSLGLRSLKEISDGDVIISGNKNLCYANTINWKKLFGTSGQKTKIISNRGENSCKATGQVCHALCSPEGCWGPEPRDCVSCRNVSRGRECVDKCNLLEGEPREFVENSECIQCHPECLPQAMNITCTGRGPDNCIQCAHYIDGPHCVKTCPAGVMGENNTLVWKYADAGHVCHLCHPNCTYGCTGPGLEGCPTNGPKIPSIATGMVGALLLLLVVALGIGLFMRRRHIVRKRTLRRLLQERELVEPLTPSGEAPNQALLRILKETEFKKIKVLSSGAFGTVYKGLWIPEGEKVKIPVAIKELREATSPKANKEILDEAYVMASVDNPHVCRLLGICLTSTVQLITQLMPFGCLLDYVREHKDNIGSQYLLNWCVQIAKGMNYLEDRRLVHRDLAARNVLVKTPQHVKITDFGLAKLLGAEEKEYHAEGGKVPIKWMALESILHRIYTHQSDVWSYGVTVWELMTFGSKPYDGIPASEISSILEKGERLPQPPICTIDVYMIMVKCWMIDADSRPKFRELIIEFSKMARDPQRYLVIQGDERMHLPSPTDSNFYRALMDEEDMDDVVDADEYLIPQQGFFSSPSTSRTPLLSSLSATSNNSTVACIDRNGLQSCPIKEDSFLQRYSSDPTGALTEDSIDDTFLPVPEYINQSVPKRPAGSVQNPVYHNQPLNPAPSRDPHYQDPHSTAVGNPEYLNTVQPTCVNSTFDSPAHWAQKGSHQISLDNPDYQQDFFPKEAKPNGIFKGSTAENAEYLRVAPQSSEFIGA
Outline: as §1

STK22B (TSSK2) = biological target: T6, STK22B (TSSK2) (Homo sapiens, UniProt Q96PF2)
T6 construct: purchased Thermo Fisher Scientific
T6 sequence (Q96PF2 1-358): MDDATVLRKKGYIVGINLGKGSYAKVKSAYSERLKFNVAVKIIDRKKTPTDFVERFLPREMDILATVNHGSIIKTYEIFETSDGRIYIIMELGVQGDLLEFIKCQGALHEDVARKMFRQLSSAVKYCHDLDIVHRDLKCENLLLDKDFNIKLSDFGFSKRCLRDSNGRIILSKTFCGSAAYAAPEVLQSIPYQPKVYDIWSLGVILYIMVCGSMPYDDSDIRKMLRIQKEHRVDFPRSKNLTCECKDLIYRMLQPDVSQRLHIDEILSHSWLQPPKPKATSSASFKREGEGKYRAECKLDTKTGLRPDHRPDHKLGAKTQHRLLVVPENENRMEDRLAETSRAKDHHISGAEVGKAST
Outline: as §1

DAPK1 = biological target: T7, DAPK1 (Homo sapiens, UniProt P53355)
T7 construct: purchased Thermo Fisher Scientific
T7 sequence (P53355 whole entry): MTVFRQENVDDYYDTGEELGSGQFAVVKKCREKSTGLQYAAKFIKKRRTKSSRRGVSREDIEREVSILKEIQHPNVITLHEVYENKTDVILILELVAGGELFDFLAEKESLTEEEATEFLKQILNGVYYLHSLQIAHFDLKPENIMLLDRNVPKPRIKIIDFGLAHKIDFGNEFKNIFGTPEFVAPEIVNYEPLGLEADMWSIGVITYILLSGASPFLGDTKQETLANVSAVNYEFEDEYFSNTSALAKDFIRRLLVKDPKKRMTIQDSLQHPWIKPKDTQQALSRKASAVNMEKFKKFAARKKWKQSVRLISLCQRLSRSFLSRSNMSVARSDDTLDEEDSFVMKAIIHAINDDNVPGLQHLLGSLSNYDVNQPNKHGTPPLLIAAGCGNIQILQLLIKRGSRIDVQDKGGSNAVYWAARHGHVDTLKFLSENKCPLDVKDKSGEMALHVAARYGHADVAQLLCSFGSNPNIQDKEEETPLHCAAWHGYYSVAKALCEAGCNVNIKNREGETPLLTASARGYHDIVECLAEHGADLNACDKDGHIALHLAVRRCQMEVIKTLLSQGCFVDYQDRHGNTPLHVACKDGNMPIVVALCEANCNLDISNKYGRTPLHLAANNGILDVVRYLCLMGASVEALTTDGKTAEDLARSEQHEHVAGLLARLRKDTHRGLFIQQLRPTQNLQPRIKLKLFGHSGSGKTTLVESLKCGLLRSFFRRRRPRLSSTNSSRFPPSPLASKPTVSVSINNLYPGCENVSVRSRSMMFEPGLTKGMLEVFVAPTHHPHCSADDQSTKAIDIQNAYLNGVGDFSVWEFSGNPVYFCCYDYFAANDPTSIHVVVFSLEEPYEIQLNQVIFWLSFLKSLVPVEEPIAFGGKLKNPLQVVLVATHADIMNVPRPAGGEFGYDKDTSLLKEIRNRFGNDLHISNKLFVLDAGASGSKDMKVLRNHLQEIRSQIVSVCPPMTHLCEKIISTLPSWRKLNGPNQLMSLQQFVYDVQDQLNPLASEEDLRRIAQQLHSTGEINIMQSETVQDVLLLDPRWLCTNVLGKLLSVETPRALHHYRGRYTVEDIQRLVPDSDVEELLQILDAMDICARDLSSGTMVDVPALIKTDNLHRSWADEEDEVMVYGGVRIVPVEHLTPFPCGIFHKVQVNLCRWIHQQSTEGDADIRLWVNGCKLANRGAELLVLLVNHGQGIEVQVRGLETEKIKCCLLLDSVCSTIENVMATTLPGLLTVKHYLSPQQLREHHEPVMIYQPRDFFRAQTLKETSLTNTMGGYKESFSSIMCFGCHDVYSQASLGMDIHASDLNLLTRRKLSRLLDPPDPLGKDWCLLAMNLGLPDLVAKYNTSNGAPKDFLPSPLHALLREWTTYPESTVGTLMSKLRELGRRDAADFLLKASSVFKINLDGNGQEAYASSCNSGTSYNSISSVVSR
Outline: as §1

PLK2 = biological target: T8, PLK2 (Homo sapiens, UniProt Q9NYY3)
T8 construct: purchased Thermo Fisher Scientific
T8 sequence (Q9NYY3 whole entry): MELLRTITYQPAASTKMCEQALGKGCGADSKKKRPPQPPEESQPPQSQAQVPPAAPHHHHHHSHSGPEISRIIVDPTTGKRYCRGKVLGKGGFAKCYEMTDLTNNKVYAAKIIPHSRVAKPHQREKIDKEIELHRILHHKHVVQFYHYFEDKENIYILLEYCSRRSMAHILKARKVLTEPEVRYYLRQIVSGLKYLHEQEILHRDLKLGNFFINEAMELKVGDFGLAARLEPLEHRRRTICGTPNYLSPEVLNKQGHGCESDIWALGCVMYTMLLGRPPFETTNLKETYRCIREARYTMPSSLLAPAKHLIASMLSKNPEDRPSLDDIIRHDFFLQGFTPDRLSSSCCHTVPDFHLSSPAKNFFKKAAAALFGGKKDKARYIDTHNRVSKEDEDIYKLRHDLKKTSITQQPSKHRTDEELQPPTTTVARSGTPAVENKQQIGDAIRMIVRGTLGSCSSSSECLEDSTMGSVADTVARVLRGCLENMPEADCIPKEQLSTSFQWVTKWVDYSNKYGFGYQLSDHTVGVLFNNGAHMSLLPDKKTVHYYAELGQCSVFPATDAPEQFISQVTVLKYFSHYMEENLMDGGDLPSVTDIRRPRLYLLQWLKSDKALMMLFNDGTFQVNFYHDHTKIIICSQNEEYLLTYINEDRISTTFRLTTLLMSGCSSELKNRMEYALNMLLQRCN
Outline: as §1

NUAK1 (ARK5) = biological target: T9, NUAK1 (ARK5) (Homo sapiens, UniProt O60285)
T9 construct: purchased Thermo Fisher Scientific
T9 sequence (O60285 1-661): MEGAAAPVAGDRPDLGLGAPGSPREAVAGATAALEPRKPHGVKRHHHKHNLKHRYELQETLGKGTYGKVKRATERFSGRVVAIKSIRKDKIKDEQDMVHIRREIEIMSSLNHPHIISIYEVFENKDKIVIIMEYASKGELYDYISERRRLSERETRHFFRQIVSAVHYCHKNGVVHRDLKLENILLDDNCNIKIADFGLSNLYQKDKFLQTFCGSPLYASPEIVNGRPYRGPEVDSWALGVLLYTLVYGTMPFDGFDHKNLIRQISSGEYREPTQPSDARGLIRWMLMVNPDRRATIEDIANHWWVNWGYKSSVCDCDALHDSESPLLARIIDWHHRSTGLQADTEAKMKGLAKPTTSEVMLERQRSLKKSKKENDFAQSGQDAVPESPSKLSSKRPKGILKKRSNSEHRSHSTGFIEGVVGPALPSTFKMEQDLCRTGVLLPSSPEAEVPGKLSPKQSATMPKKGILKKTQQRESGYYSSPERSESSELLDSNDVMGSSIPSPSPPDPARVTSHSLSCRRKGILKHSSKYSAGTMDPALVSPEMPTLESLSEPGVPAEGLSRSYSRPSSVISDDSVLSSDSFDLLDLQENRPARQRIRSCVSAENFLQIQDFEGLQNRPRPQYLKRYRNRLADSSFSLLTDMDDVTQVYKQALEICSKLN
Outline: as §1

COc1ccc2cc3c(N)nn(C(=O)c4cccc(N(C)C)c4)c3nc2c1 [MW05, (3-Amino-7-methoxypyrazolo[3,4-b]quinolin-1-yl)-[3-(dimethylamino)phenyl]methanone]
inhibition at 1 µM (EGFR (ErbB1) L861Q): -6% | inhibition at 10 µM (EGFR (ErbB1) L861Q): -18% | inhibition at 1 µM (CAMK2B (CaMKII beta)): 5% | inhibition at 10 µM (CAMK2B (CaMKII beta)): 3% | inhibition at 1 µM (FRK (PTK5)): 9% | inhibition at 10 µM (FRK (PTK5)): 6% | inhibition at 1 µM (NEK2): -3% | inhibition at 10 µM (NEK2): 1% | inhibition at 1 µM (EGFR (ErbB1) G719S): 4% | inhibition at 10 µM (EGFR (ErbB1) G719S): -5% | inhibition at 1 µM (STK22B (TSSK2)): 11% | inhibition at 10 µM (STK22B (TSSK2)): 2% | inhibition at 1 µM (DAPK1): 3% | inhibition at 10 µM (DAPK1): 3% | inhibition at 1 µM (PLK2): 3% | inhibition at 10 µM (PLK2): -2% | inhibition at 1 µM (NUAK1 (ARK5)): 6% | inhibition at 10 µM (NUAK1 (ARK5)): 11%

COc1ccc2c(c1OC)c(=O)n1c3ccc(O)cc3c3ccnc2c31 [MW01, 5-Hydroxy-10,11-dimethoxy-9H-benzo[c]indolo[3,2,1-ij][1,5]naphthyridin-9-one]
inhibition at 1 µM (EGFR (ErbB1) L861Q): -9% | inhibition at 10 µM (EGFR (ErbB1) L861Q): 8% | inhibition at 1 µM (CAMK2B (CaMKII beta)): 9% | inhibition at 10 µM (CAMK2B (CaMKII beta)): 37% | inhibition at 1 µM (FRK (PTK5)): 15% | inhibition at 10 µM (FRK (PTK5)): 22% | inhibition at 1 µM (NEK2): -4% | inhibition at 10 µM (NEK2): 0% | inhibition at 1 µM (EGFR (ErbB1) G719S): 5% | inhibition at 10 µM (EGFR (ErbB1) G719S): 14% | inhibition at 1 µM (STK22B (TSSK2)): 11% | inhibition at 10 µM (STK22B (TSSK2)): 20% | inhibition at 1 µM (DAPK1): 8% | inhibition at 10 µM (DAPK1): 14% | inhibition at 1 µM (PLK2): -1% | inhibition at 10 µM (PLK2): -2% | inhibition at 1 µM (NUAK1 (ARK5)): 48% | inhibition at 10 µM (NUAK1 (ARK5)): 66%
